Literature values as cited in patent US20260365653A1, “IRREVERSIBLE MUTEGFR INHIBITORS” (Bayer Aktiengesellschaft, priority 2022, published 2026).

Columns and labels:
wild-type EGFR = conditions: cited from earlier work
EGFR exon20 insertions = conditions: patients with EGFR exon20 insertions; cited from earlier work
[1] = system: mutations in exons 18, 19, and 21 of EGFR; conditions: cited from earlier work
[2] = background statement on approved drugs; cited from earlier work
EGFR T790M = conditions: T790M mutant patients; cited from earlier work
[3] = system: EGFR exon20 insertion mutations; conditions: cited from earlier work
[4] = system: classical activating EGFR mutations and brain metastasis; conditions: EGFR mutant NSCLC; cited from earlier work

| Molecule | overall survival (EGFR exon20 insertions) | progression-free survival (EGFR exon20 insertions) | response rates (EGFR exon20 insertions) | durability of response [1] | efficacy in patients [1] | blood-brain-barrier permeability [2] | other results |
| --- | --- | --- | --- | --- | --- | --- | --- |
| CN(C)C/C=C/C(=O)Nc1cc2c(Nc3ccc(F)c(Cl)c3)ncnc2cc1O[C@H]1CCOC1 [afatinib] | significantly reduced | significantly reduced | particular low response rates | often not durable | effective in patients | – | inhibition of wild-type EGFR (wild-type EGFR): potent inhibitors of wild-type EGFR |
| COc1cc2ncnc(Nc3ccc(F)c(Cl)c3)c2cc1OCCCN1CCOCC1 [gefitinib] | significantly reduced | significantly reduced | particular low response rates | often not durable | effective in patients | – | – |
| C=CC(=O)Nc1cc(Nc2ncc(C(=O)OC(C)C)c(-c3cn(C)c4ccccc34)n2)c(OC)cc1N(C)CCN(C)C [mobocertinib, reference compound] | – | – | – | – | – | only limited blood-brain-barrier permeability | – |
| C=CC(=O)Nc1cc(Nc2nccc(-c3cn(C)c4ccccc34)n2)c(OC)cc1N(C)CCN(C)C [osimertinib] | – | – | – | – | – | – | efficacy in patients (EGFR T790M): effective in T790M mutant patients; activity on EGFR exon20 insertion mutations [3]: only limited activity; CNS activity [4]: clearly improved CNS activity |
| amivantamab | – | – | – | – | – | only limited blood-brain-barrier permeability | – |
